Residues, ends and D or L forms follow the SMILES beside them.
Tests used:
[1] = molecular target: T1, Human immunodeficiency virus type 1 integrase (Human immunodeficiency virus 1, UniProt Q7ZJM1); assay: Inhibition of wild type HIV1 integrase 3' processing activity
[2] = molecular target: T1, Human immunodeficiency virus type 1 integrase; assay: Inhibition of wild type HIV1 integrase strand transfer activity

T1 sequence (Q7ZJM1 whole entry): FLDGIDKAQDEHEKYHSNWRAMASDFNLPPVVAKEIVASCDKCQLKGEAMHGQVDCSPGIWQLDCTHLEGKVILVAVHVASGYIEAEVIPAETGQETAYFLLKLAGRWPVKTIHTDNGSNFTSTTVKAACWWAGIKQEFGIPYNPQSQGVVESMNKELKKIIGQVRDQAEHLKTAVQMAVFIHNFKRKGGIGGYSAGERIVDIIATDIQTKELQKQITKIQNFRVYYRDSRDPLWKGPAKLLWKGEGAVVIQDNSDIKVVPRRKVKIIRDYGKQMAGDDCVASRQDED

| Compound | IC50 [1] [µM] | IC50 [2] [µM] |
| --- | --- | --- |
| CC(C)C[C@@H](NC(=O)[C@@H](CCCCN)NC(=O)[C@@H](CC(C)C)NC(=O)[C@@H](CC(C)C)NC(=O)[C@@H](Cc1ccccc1)NC(=O)[C@@H](Cc1ccc(O)cc1)NC(=O)[C@@H](C)NC(=O)[C@H](N)[C@H](C)O)C(=O)N[C@H](C)C(=O)NCC(=O)N[C@H](CCCN=C(N)N)C(=O)N[C@H](Cc1c[nH]c2ccccc12)C(N)=O | 65 | 13 |
| CC(C)C[C@@H](NC(=O)[C@@H](C)NC(=O)CNC(=O)[C@@H](CCCN=C(N)N)NC(=O)[C@H](N)Cc1c[nH]c2ccccc12)C(=O)N[C@H](CCCCN)C(=O)N[C@H](CC(C)C)C(=O)N[C@H](CC(C)C)C(=O)N[C@H](Cc1ccccc1)C(=O)N[C@H](Cc1ccc(O)cc1)C(=O)N[C@H](C)C(=O)N[C@@H](C(=O)O)[C@H](C)O | 3.5 | 4 |
| CC[C@@H](C)[C@@H](NC(=O)[C@@H](CCCCN)NC(=O)[C@@H](CCC(N)=O)NC(=O)[C@@H](CCC(=O)O)NC(=O)[C@H](N)Cc1ccccc1)C(=O)NCC(=O)N[C@H](C)C(=O)N[C@H](Cc1c[nH]c2ccccc12)C(=O)N[C@H](Cc1c[nH]c2ccccc12)C(=O)N[C@@H](CS)C(=O)N[C@H](C)C(=O)O | > 1000 | > 1000 |
| CC[C@@H](C)[C@@H](NC(=O)CNC(=O)[C@@H](C)NC(=O)[C@@H](Cc1c[nH]c2ccccc12)NC(=O)[C@@H](Cc1c[nH]c2ccccc12)NC(=O)[C@@H](CS)NC(=O)[C@@H](C)N)C(=O)N[C@H](CCCCN)C(=O)N[C@H](CCC(N)=O)C(=O)N[C@H](CCC(=O)O)C(=O)N[C@H](Cc1ccccc1)C(=O)O | > 1000 | > 1000 |
| CC(C)C[C@@H](NC(=O)[C@@H](CCCCN)NC(=O)[C@@H](CC(C)C)NC(=O)[C@@H](CC(C)C)NC(=O)[C@@H](Cc1ccccc1)NC(=O)[C@@H](Cc1ccc(O)cc1)NC(=O)[C@@H](C)NC(=O)[C@H](N)[C@H](C)O)C(=O)N[C@H](C)C(=O)NCC(=O)N[C@H](CCCN=C(N)N)C(=O)N[C@H](Cc1c[nH]c2ccccc12)C(=O)O | 96 | 16 |
| CC[C@H](C)[C@H](NC(=O)[C@H](CCCCN)NC(=O)[C@H](CCC(N)=O)NC(=O)[C@H](CCC(=O)O)NC(=O)[C@@H](N)Cc1ccccc1)C(=O)NCC(=O)N[C@@H](C)C(=O)N[C@@H](Cc1c[nH]c2ccccc12)C(=O)N[C@@H](Cc1c[nH]c2ccccc12)C(=O)N[C@@H](CS)C(=O)N[C@@H](C)C(=O)O | > 1000 | > 1000 |
| CC(C)C[C@H](NC(=O)[C@H](CCCCN)NC(=O)[C@H](CC(C)C)NC(=O)[C@H](CC(C)C)NC(=O)[C@H](Cc1ccccc1)NC(=O)[C@H](Cc1ccc(O)cc1)NC(=O)[C@H](C)NC(=O)[C@@H](N)[C@@H](C)O)C(=O)N[C@@H](C)C(=O)N[C@@H](C)C(=O)N[C@@H](CCCN=C(N)N)C(=O)N[C@@H](Cc1c[nH]c2ccccc12)C(=O)O | 118 | 19 |
| CC(C)C[C@H](NC(=O)[C@H](CCCCN)NC(=O)[C@H](CC(C)C)NC(=O)[C@H](CC(C)C)NC(=O)[C@H](Cc1ccccc1)NC(=O)[C@H](Cc1ccc(O)cc1)NC(=O)[C@H](C)NC(=O)[C@@H](N)[C@@H](C)O)C(=O)N[C@@H](C)C(=O)NCC(=O)N[C@@H](CCCN=C(N)N)C(=O)N[C@@H](Cc1c[nH]c2ccccc12)C(N)=O | 21 | 2.7 |
| CC(C)C[C@H](NC(=O)[C@H](CCC(N)=O)NC(=O)[C@H](CS)NC(=O)[C@H](CCCCN)NC(=O)[C@H](CC(=O)O)NC(=O)[C@H](CS)NC(=O)[C@H](CO)NC(=O)[C@H](C)N)C(=O)N[C@@H](CCCCN)C(=O)NCC(N)=O (H-ASCDKCQLKG-NH2) | > 2000 | > 2000 |
| CC[C@H](C)[C@H](NC(=O)CNC(=O)[C@@H]1CCCN1C(=O)[C@H](CO)NC(=O)[C@H](CS)NC(=O)[C@H](CC(=O)O)NC(=O)[C@@H](NC(=O)[C@H](CCC(N)=O)NC(=O)CNC(=O)[C@@H](N)Cc1cnc[nH]1)C(C)C)C(=O)N[C@@H](Cc1c[nH]c2ccccc12)C(=O)N[C@@H](CCC(N)=O)C(=O)N[C@@H](CC(C)C)C(=O)N[C@@H](CC(=O)O)C(=O)N[C@@H](CS)C(=O)N[C@H](C(=O)N[C@@H](Cc1cnc[nH]1)C(N)=O)[C@@H](C)O (H-HGQVDCSPGIWQLDCTH-NH2) | 1000 | 1000 |
| H-AAWWAGIKQEF-OH | 277 | 311 |
| H-AAYFLLKLAGRW-OH | 100 | 47 |
| H-ACAWAGIKQEF-OH | 33 | 34 |
| H-ACGWAGIKQEF-NH2 | 46 | 16 |
| H-ACWAAGIKQEF-OH | > 333 | > 333 |
| H-ACWGAGIKQEF-NH2 | > 333 | > 333 |
| H-ACWWAAIKQEF-OH | 90 | 43 |
| H-ACWWAG-NH2 | > 100 | 60 |
| H-ACWWAGAKQEF-OH | > 333 | > 333 |
| H-ACWWAGIAQEF-OH | 62 | 55 |
| H-ACWWAGIKAEF-OH | > 333 | > 333 |
| H-ACWWAGIKQAF-OH | > 333 | > 333 |
| H-ACWWAGIKQEA-OH | 245 | 206 |
| H-ACWWAGIKQEF-NH2 | 95 | 56 |
| H-ACWWAGIRQEF-NH2 | > 333 | > 333 |
| H-ASWWAGIKQEF-NH2 | 294 | 163 |
| H-EEHEKYHSNW-NH2 | > 2000 | > 2000 |

| Compound | IC50 [1] [µM] | IC50 [2] [µM] |
| --- | --- | --- |
| H-ESMNKELKKI-NH2 | > 2000 | > 2000 |
| H-FGIPYNPQSQ-NH2 | > 1000 | > 1000 |
| H-FIHNFKRK-NH2 | > 2000 | > 2000 |
| H-GRWPVKT-NH2 | > 2000 | > 2000 |
| H-GYSAGERIVD-NH2 | > 2000 | > 2000 |
| H-HTDNGSNF-NH2 | > 2000 | > 2000 |
| H-IKQEF-NH2 | > 100 | > 100 |
| H-KLAGRW-NH2 | > 100 | > 100 |
| H-PAETGQET-NH2 | > 2000 | > 2000 |
| H-TAAFLLKLAGRW-OH | 193 | 119 |
| H-TASFLLKLAGRW-NH2 | 186 | 11 |
| H-TAYALLKLAGRW-OH | > 333 | > 333 |
| H-TAYFALKLAGRW-OH | 115 | 51 |
| H-TAYFLAKLAGRW-OH | > 333 | > 333 |
| H-TAYFLL-NH2 | 500 | 500 |
| H-TAYFLLALAGRW-OH | 113 | 56 |
| H-TAYFLLILAGRW-NH2 | 4.1 | 3 |
| H-TAYFLLKAAGRW-OH | > 333 | 106 |
| H-TAYFLLKLAGAW-OH | 83 | 80 |
| H-TAYFLLKLAGRA-OH | > 333 | > 333 |
| H-TAYFLLKLAGRL-NH2 | 315 | 38 |
| H-VHVASGY-NH2 | > 2000 | > 2000 |
| H-VPRRKAKI-NH2 | > 1000 | > 1000 |
| H-VRDQAEHLKT-NH2 | > 2000 | > 2000 |
| H-WAGIKQ-NH2 | > 100 | > 100 |
| H-WKGPAKLLWK-NH2 | > 1000 | > 1000 |
| H-YFLLKL-NH2 | 20 | 20 |

Reference: ChEMBL document CHEMBL1138038, “Sequence-based design and discovery of peptide inhibitors of HIV-1 integrase: insight into the binding mode of the enzyme” (J Med Chem, 2006)
